Results from patent publication US20260317327A1, “CRYSTRAL OF QUINOLINE-SUBSTITUTED COMPOUND” (TAIHO PHARMACEUTICAL CO., LTD., priority 2023, published 2026).

What was measured:
[1] = Solid stability test (closed system, storage at 60 °C or 80 °C, HPLC purity, crystal form, appearance); format: physicochemical; settings: for Change amount (purity) 2 weeks after / Purity 2 weeks after / Color tone change 2 weeks after / Change amount (purity) 4 weeks after / Purity 4 weeks after / Color tone change 4 weeks after: closed system; for Color tone change 2 weeks after / Color tone change 4 weeks after: visual; for Purity at the beginning: HPLC 220 nm
Procedure: A temperature influence was tested by using the type I crystal, solvate crystal type “b”, and amorphous solid of the compound (1) obtained in Example 1, Comparative Example 1, and Reference Example 1, respectively. An evaluation was performed by the following procedure. In addition, with regard to the appearances of the crystals and the amorphous solid, the states thereof before and after their storage were visually observed. • Storage condition: 60° C. or 80° C. (closed system) (HIFLEX (high-temperature storage machine manufactured by ETAC Engineering Co., Ltd.)) • Storage period: 2 weeks and 4 weeks • Storage amount: about 100 mg • Storage container: a glass bottle
A change in amount of related substances (amount of substances detected in addition to the compound (1)) was analyzed by HPLC in accordance with the following method. A product obtained as follows was used as a sample for analysis: about 1 mg of each sample was weighed as the compound (1); the sample was dissolved in 10 mL of a mixed liquid of acetonitrile and water (3:1 v/v); and 5 μL of the liquid was accurately weighed out.
The amount of the related substances in the sample solution was measured by HPLC analysis. The handling of each apparatus including data processing followed a method and a procedure instructed in the apparatus. • Column: InertSustain C18HP (4.6 mm×150 mm, 3 μm) manufactured by GL Sciences Inc. • UV detection: 220 nm • Column temperature: 40° C. • Flow rate: 1.0 mL/min • Sample cooler: 5° C. • Sample concentration: 0.1 mg/mL • Mobile phase A: 0.1% phosphoric acid • Mobile phase B: acetonitrile

[2] = Dynamic vapor sorption (DVS) test; format: physicochemical
Procedure: A vapor sorption test was performed by using each of the type I crystal, solvate crystal type “b”, and amorphous solid of the compound (1) obtained in Example 1, Comparative Example 1, and Reference Example 1, respectively. The vapor sorption test was performed in accordance with the following conditions. About 10 mg of a sample was loaded into a dedicated holder made of quartz, and the weights of the sample at respective humidities were continuously measured and recorded under the following conditions.

[3] = Comparison of type I crystal with metastable crystal and hydrate crystal (hygroscopicity, storage stability; data not shown); format: physicochemical; settings: compared to metastable crystal and hydrate crystal
Description: In addition to Comparative Example 1, a metastable crystal and a hydrate crystal of the compound (1) were obtained and compared with the type I crystal obtained according to the method described in Example 1.

EGFR = settings: as disclosed in Patent Document 1 (WO 2015/025936 A1); cited from earlier work

SMILES	Change amount (purity) 2 weeks after ([1]; 60 °C) [%]	Purity 2 weeks after ([1]; 60 °C) [%]	Color tone change 2 weeks after ([1]; 60 °C)	Change amount (purity) 4 weeks after ([1]; 60 °C) [%]	Purity 4 weeks after ([1]; 60 °C) [%]	Color tone change 4 weeks after ([1]; 60 °C)	Change amount (purity) 2 weeks after ([1]; 80 °C) [%]	Purity 2 weeks after ([1]; 80 °C) [%]	Color tone change 2 weeks after ([1]; 80 °C)	Change amount (purity) 4 weeks after ([1]; 80 °C) [%]	Purity 4 weeks after ([1]; 80 °C) [%]	Color tone change 4 weeks after ([1]; 80 °C)	Purity at the beginning ([1]; storage at 60 °C series) [%]	Purity at the beginning ([1]; storage at 80 °C series) [%]	Weight increase ([2]; 95% RH, 25 °C)	other results
C=CC(=O)N[C@H]1C=C(C)c2c(-c3cnc4ccccc4c3)c3c(N)ncnc3n2C1 [Amorphous solid, (S)—N-(4-amino-6-methyl-5-(quinolin-3-yl)-8,9-dihydropyrimido[5,4-b]indolizin-8-yl)acrylamide]	−0.66	98.09	Absent	−0.85	97.90	Absent	−6.38	92.37	Coloring	−7.90	90.85	Coloring	98.75	98.75	about 10%	Weight increase ([2]; 50% RH, 25 °C): ≥ 2%
C=CC(=O)N[C@H]1C=C(C)c2c(-c3cnc4ccccc4c3)c3c(N)ncnc3n2C1 [Solvate crystal type “b”, (S)—N-(4-amino-6-methyl-5-(quinolin-3-yl)-8,9-dihydropyrimido[5,4-b]indolizin-8-yl)acrylamide]	−10.60	88.16	Absent	−11.55	87.21	Absent	−14.49	84.57	Absent	−15.38	83.38	Absent	98.76	98.76	≥ 5%	Weight increase profile (in words) ([2]; 5-95% RH, 25 °C): substantially linear weight increase starting from a low-humidity region
C=CC(=O)N[C@H]1C=C(C)c2c(-c3cnc4ccccc4c3)c3c(N)ncnc3n2C1 [Type I crystal, (S)—N-(4-amino-6-methyl-5-(quinolin-3-yl)-8,9-dihydropyrimido[5,4-b]indolizin-8-yl)acrylamide]	0.06	98.90	Absent	0.02	98.86	Absent	0.05	98.89	Absent	0.07	98.91	Absent	98.84	98.84	1.28%	Hygroscopicity, storage stability, etc. (in words) [3]: better properties in terms of hygroscopicity, storage stability, etc.; Chemical purity on storage (in words) ([1]; 60 °C / 80 °C, 2 and 4 weeks): substantially remained unchanged; Overall stability of crystal (in words) ([1]; 60 °C / 80 °C, 2 and 4 weeks): extremely stable crystal; Amount of related substances on storage (in words) ([1]; 60 °C / 80 °C, 2 and 4 weeks, HPLC): substantially no increase in amount of related substances; Crystal form and color tone on storage (in words) ([1]; 60 °C / 80 °C, 2 and 4 weeks, compared to solvate crystal type “b” and amorphous solid): showed no changes; Hygroscopicity (in words) ([2]; compared to the solvate crystal type “b” and amorphous solid): less hygroscopic; Weight increase ([2]; up to 75% RH, 25 °C): less than 0.4%
C=CC(=O)N[C@H]1C=C(C)c2c(-c3cnc4ccccc4c3)c3c(N)ncnc3n2C1 [compound (1), (S)—N-(4-amino-6-methyl-5-(quinolin-3-yl)-8,9-dihydropyrimido[5,4-b]indolizin-8-yl)acrylamide]	–	–	–	–	–	–	–	–	–	–	–	–	–	–	–	EGFR-inhibiting action (in words) (EGFR): excellent EGFR-inhibiting action
